# From US8557737B2, “Methods of altering poppy characteristics” (priority 2005, dated 2013)
# Experiments:
# Format in all cases: in vivo, Papaver somniferum
# poppy crops [1] = assay: Example 19: field trial, sulfosulfuron, thifensulfuron-methyl and metsulfuron-methyl, morphine crop; conditions: applied at M-LRU and LRU-BE; for PLANT HEIGHT: measured some 10 weeks after last application
# Experimental: (§1) All trials were conducted on poppy crops. Seed was treated with Thiram (5.6 g of Thiram 800/kg seed) and Apron (4 g/kg) and sown at a rate of approximately 750 g/ha. Fertilisers were applied at sowing. Most commonly, either 50:50 lime:superphosphate/triple superphosphate at 125 kg/ha, or lime:superphosphate at 250 kg/ha, were mixed with seed and drilled at a depth of 15 mm. In the same operation, NPK (nitrogen:phosphorus:potassium), at various rates, was banded 75 mm below the seed, unless otherwise stated. All crops were subjected to herbicide sprays for weed control, fungicide sprays for disease control, insecticide sprays if appropriate and were irrigated as required.
# (§2) All spray applications were made with a precision sprayer, using Silvan Lurmark flat-fan, low-drift nozzles (LD110-0015). Spray equipment was calibrated to deliver 153 L water/ha.
# (§3) At harvest, a 2 m×4 m quadrat was placed in each plot (3 m×6 m, unless otherwise stated) and capsules hand-picked from this area. Capsules were broken up, seed and capsule material separated and weighed. Capsule moisture readings were taken with a moisture meter. Alkaloid yield data were calculated on Pesticide Research Manager (version 5 for Windows) using the formulae below. Briefly, capsule weight was adjusted for moisture to a dry weight, 5% of seed weight was added to this (this amount of capsule material regularly occurs in seed samples after processing) to give a capsule weight per plot. Seed weight was adjusted to 95% of crude weight. Straw weights were determined by multiplying dry capsule weight by 1.3 (estimated amount of stem material in a commercial harvest) and adjusted to 11% moisture. When Lontrel was applied to crops exact capsule and seed weight data were entered. Analyses of variance and a Multiple Range Test were performed on data using Pesticide Research Manager.
# Trial to evaluate applications of sulfosulfuron, thifensulfuron-methyl and metsulfuron-methyl, in a morphine crop. Treatment sprays were applied to crop at mid-late run-up and late-run-up/bud-emergence, respectively. Plant heights were measured some 10 weeks after the last application. Lodging was assessed at capsule harvest.
# poppy crops [2] = assay: Example 17: field trial, triasulfuron, mesosulfuron-methyl and metsulfuron-methyl at early run-up and mid-late run-up, morphine crop; conditions: for PLANT HEIGHT: 6 weeks after last application; for LODGING: at capsule harvest
# Experimental: as §1, §2, §3
# Trial to evaluate applications of triasulfuron, mesosulfuron-methyl and metsulfuron-methyl, in a morphine crop. Treatment sprays were applied to with crop at early run-up and mid-late run-up, respectively. Plant heights were measured on 6 weeks after last application and lodging was assessed at capsule harvest.
# poppy crops [3] = assay: Example 16: field trial, metsulfuron-methyl, mesosulfuron-methyl and triasulfuron at row cover and ground cover/early run-up, morphine crop; conditions: for PLANT HEIGHT: 5 weeks after last application
# Experimental: as §1, §2, §3
# Trial to evaluate applications of metsulfuron-methyl (Compound 1), mesosulfuron-methyl (Compound 2) and triasulfuron (Compound 3), in a morphine crop. Treatment sprays were applied to crop at row cover and ground cover/early run-up, respectively. Plant heights were assessed 5 weeks after last application and lodging was assessed at capsule harvest.
# poppy crops [4] = assay: Example 10: field trial, triasulfuron and metsulfuron-methyl, morphine crop
# Experimental: as §1, §2
# as §3, with “Manager. Significant differences (P=0.05) between treatments are denoted by different lower case letters adjacent to treatment means in the tables of results.” for “Manager.”
# […] Treatment sprays were applied to crop at ground cover, mid run-up and bud-emergence, respectively.
# poppy crops [5] = assay: Example 18: field trial, triasulfuron, mesosulfuron-methyl and metsulfuron-methyl at row cover, mid run-up and early hook, morphine crop; conditions: MRU and LRU; for PLANT HEIGHT: 5 weeks after last application; for LODGING: at capsule harvest
# Experimental: as §1, §2, §3
# Trial to evaluate applications of triasulfuron, mesosulfuron-methyl and metsulfuron-methyl, in a morphine crop. […] Plant heights were measured 5 weeks after last application and lodging at capsule harvest.
# [6] = 1.35 G/HA + ACTIVATOR .125 % V/V
# [7] = 4.5 G/HA + ACTIVATOR .125 % V/V
# [8] = 450 MG/HA + ACTIVATOR .125 % V/V
# [9] = Trt 3: COMPOUND 3 75 MG/HA + PULSE .2% V/V at ERU and M-LRU
# [10] = Trt 4: COMPOUND 3 150 MG/HA + PULSE .2% V/V at ERU and M-LRU
# [11] = Trt 3: COMPOUND 3 75 MG/HA + PULSE .2% V/V at RC and GC/ERU
# [12] = Trt 4: COMPOUND 3 150 MG/HA + PULSE .2% V/V at RC and GC/ERU
# [13] = COMPOUND 3 263 MG/HA + PULSE .2 % V/V at GC and RU
# [14] = COMPOUND 3 525 MG/HA + PULSE .2 % V/V at GC (one application)
# [15] = COMPOUND 3 525 MG/HA + PULSE .2 % V/V at GC and RU
# [16] = Trt 3: COMPOUND 3 75 MG/HA + PULSE .2% V/V at RC
# [17] = Trt 4: COMPOUND 3 150 MG/HA + PULSE .2% V/V at RC
structure (smiles),measurement,setting,value
"CCS(=O)(=O)c1nc2ccccn2c1S(=O)(=O)NC(=O)Nc1nc(OC)cc(OC)n1 [Compound 5, sulfosulfuron]",CAPSULE/SEED RATIO,poppy crops [1]; 60 MG/HA + SWIFT 1 % V/V,2.324
same,CROP WEIGHT,poppy crops [1]; 60 MG/HA + SWIFT 1 % V/V,.96 t/ha
same,MORPHINE,poppy crops [1]; 60 MG/HA + SWIFT 1 % V/V,19.19 kg/ha
same,SEED,poppy crops [1]; 60 MG/HA + SWIFT 1 % V/V,220 kg/ha
same,STRAW,poppy crops [1]; 60 MG/HA + SWIFT 1 % V/V,738 kg/ha
same,STRAW MORPHINE %,poppy crops [1]; 60 MG/HA + SWIFT 1 % V/V,2.6%
same,PLANT HEIGHT,poppy crops [1]; 60 MG/HA + SWIFT 1 % V/V,73 cm
same,CAPSULE/SEED RATIO,poppy crops [1]; 180 MG/HA + SWIFT 1 % V/V,2.898
same,CROP WEIGHT,poppy crops [1]; 180 MG/HA + SWIFT 1 % V/V,1.15 t/ha
same,MORPHINE,poppy crops [1]; 180 MG/HA + SWIFT 1 % V/V,22.90 kg/ha
same,SEED,poppy crops [1]; 180 MG/HA + SWIFT 1 % V/V,223 kg/ha
same,STRAW,poppy crops [1]; 180 MG/HA + SWIFT 1 % V/V,931 kg/ha
same,STRAW MORPHINE %,poppy crops [1]; 180 MG/HA + SWIFT 1 % V/V,2.46%
same,PLANT HEIGHT,poppy crops [1]; 180 MG/HA + SWIFT 1 % V/V,75 cm
same,CAPSULE/SEED RATIO,poppy crops [1]; 600 MG/HA + SWIFT 1 % V/V,4.564
same,CROP WEIGHT,poppy crops [1]; 600 MG/HA + SWIFT 1 % V/V,0.89 t/ha
same,MORPHINE,poppy crops [1]; 600 MG/HA + SWIFT 1 % V/V,20.74 kg/ha
same,SEED,poppy crops [1]; 600 MG/HA + SWIFT 1 % V/V,118 kg/ha
same,STRAW,poppy crops [1]; 600 MG/HA + SWIFT 1 % V/V,774 kg/ha
same,STRAW MORPHINE %,poppy crops [1]; 600 MG/HA + SWIFT 1 % V/V,2.68%
same,PLANT HEIGHT,poppy crops [1]; 600 MG/HA + SWIFT 1 % V/V,80 cm
"COC(=O)c1sccc1S(=O)(=O)NC(=O)Nc1nc(C)nc(OC)n1 [Compound 4, thifensulfuron-methyl]",CAPSULE/SEED RATIO,poppy crops [1]; [6],3.299
same,CROP WEIGHT,poppy crops [1]; [6],0.22 t/ha
same,MORPHINE,poppy crops [1]; [6],4.10 kg/ha
same,SEED,poppy crops [1]; [6],39 kg/ha
same,STRAW,poppy crops [1]; [6],184 kg/ha
same,STRAW MORPHINE %,poppy crops [1]; [6],2.23%
same,PLANT HEIGHT,poppy crops [1]; [6],65 cm
same,CAPSULE/SEED RATIO,poppy crops [1]; [7],0
same,CROP WEIGHT,poppy crops [1]; [7],0 t/ha
same,MORPHINE,poppy crops [1]; [7],0 kg/ha
same,SEED,poppy crops [1]; [7],0 kg/ha
same,STRAW,poppy crops [1]; [7],0 kg/ha
same,STRAW MORPHINE %,poppy crops [1]; [7],0%
same,PLANT HEIGHT,poppy crops [1]; [7],0 cm
same,CAPSULE/SEED RATIO,poppy crops [1]; [8],5.209
same,CROP WEIGHT,poppy crops [1]; [8],0.87 t/ha
same,MORPHINE,poppy crops [1]; [8],16.19 kg/ha
same,SEED,poppy crops [1]; [8],103 kg/ha
same,STRAW,poppy crops [1]; [8],771 kg/ha
same,STRAW MORPHINE %,poppy crops [1]; [8],2.10%
same,PLANT HEIGHT,poppy crops [1]; [8],78 cm
"COc1nc(C)nc(NC(=O)NS(=O)(=O)c2ccccc2OCCCl)n1 [Compound 3, triasulfuron]",CAPS/SEED RATIO,poppy crops [2]; [9],3.677 c
same,CROP WEIGHT,poppy crops [2]; [9],2.79 b t/ha
same,MORPHINE,poppy crops [2]; [9],51.94 a kg/ha
same,SEED,poppy crops [2]; [9],451 b kg/ha
same,STRAW,poppy crops [2]; [9],2299 a kg/ha
same,STRAW MORPHINE,poppy crops [2]; [9],2.26 b %
same,PLANT HEIGHT,poppy crops [2]; [9],100.2 bc cm
same,LODGING,poppy crops [2]; [9],1.6 b %
same,CAPS/SEED RATIO,poppy crops [2]; [10],6.016 b
same,CROP WEIGHT,poppy crops [2]; [10],1.71 c t/ha
same,MORPHINE,poppy crops [2]; [10],25.78 c kg/ha
same,SEED,poppy crops [2]; [10],175 c kg/ha
same,STRAW,poppy crops [2]; [10],1331 c kg/ha
same,STRAW MORPHINE,poppy crops [2]; [10],1.93 d %
same,PLANT HEIGHT,poppy crops [2]; [10],90.4 cm·days
same,LODGING,poppy crops [2]; [10],11.9 a %
same,CAPS/SEED RATIO,poppy crops [3]; [11],1.259 b
same,CROP WEIGHT,poppy crops [3]; [11],3.47 b t/ha
same,MORPHINE,poppy crops [3]; [11],49.16 a kg/ha
same,SEED,poppy crops [3]; [11],1233 c kg/ha
same,STRAW,poppy crops [3]; [11],2211 a kg/ha
same,STRAW MORPHINE,poppy crops [3]; [11],2.21 a %
same,PLANT HEIGHT,poppy crops [3]; [11],103.4 b cm
same,CAPS/SEED RATIO,poppy crops [3]; [12],1.959 a
same,CROP WEIGHT,poppy crops [3]; [12],2.18 c t/ha
same,MORPHINE,poppy crops [3]; [12],32.34 c kg/ha
same,SEED,poppy crops [3]; [12],581 d kg/ha
same,STRAW,poppy crops [3]; [12],1589 c kg/ha
same,STRAW MORPHINE,poppy crops [3]; [12],2.03 b %
same,PLANT HEIGHT,poppy crops [3]; [12],88.6 c cm
same,CAPSULE/SEED RATIO,poppy crops [4]; [13],3.170 b
same,CROP WEIGHT,poppy crops [4]; [13],0.79 d t/ha
same,HEIGHT,poppy crops [4]; [13],71.0 cm·days
same,MORPHINE,poppy crops [4]; [13],13.17 d kg/ha
same,SEED,poppy crops [4]; [13],141 c kg/ha
same,STRAW,poppy crops [4]; [13],644 d kg/ha
same,STRAW MORPHINE,poppy crops [4]; [13],2.03 b %
same,CAPSULE/SEED RATIO,poppy crops [4]; [14],1.762 c
same,CROP WEIGHT,poppy crops [4]; [14],1.40 c t/ha
same,HEIGHT,poppy crops [4]; [14],75.6 c cm
same,MORPHINE,poppy crops [4]; [14],20.55 b kg/ha
same,SEED,poppy crops [4]; [14],408 b kg/ha
same,STRAW,poppy crops [4]; [14],992 b kg/ha
same,STRAW MORPHINE,poppy crops [4]; [14],2.06 b %
same,CAPSULE/SEED RATIO,poppy crops [4]; [15],1.338 days
same,CROP WEIGHT,poppy crops [4]; [15],0.17 e t/ha
same,HEIGHT,poppy crops [4]; [15],55.0 e cm
same,MORPHINE,poppy crops [4]; [15],1.99 e kg/ha
same,SEED,poppy crops [4]; [15],60 c kg/ha
same,STRAW,poppy crops [4]; [15],113 e kg/ha
same,STRAW MORPHINE,poppy crops [4]; [15],1.76 c %
same,CAPS/SEED RATIO,poppy crops [5]; [16],1.358 b
same,CROP WEIGHT,poppy crops [5]; [16],3.43 a t/ha
same,MORPHINE,poppy crops [5]; [16],51.88 a kg/ha
same,SEED,poppy crops [5]; [16],1161 b kg/ha
same,STRAW,poppy crops [5]; [16],2217 a kg/ha
same,STRAW MORPHINE,poppy crops [5]; [16],2.33 a %
same,PLANT HEIGHT,poppy crops [5]; [16],93.0 c cm
same,LODGING,poppy crops [5]; [16],2.2 a %
same,CAPS/SEED RATIO,poppy crops [5]; [17],2.664 a
same,CROP WEIGHT,poppy crops [5]; [17],2.32 c t/ha
same,MORPHINE,poppy crops [5]; [17],37.62 c kg/ha
same,SEED,poppy crops [5]; [17],482 c kg/ha
same,STRAW,poppy crops [5]; [17],1797 b kg/ha
same,STRAW MORPHINE,poppy crops [5]; [17],2.09 c %
same,PLANT HEIGHT,poppy crops [5]; [17],81.4 cm·days
same,LODGING,poppy crops [5]; [17],2.6 a %
